What was measured:
Details in all cases: 72 h
Calu-3 [1] = assay: cell viability relative to DMSO; higher = less toxic
U2OS [2] = assay: as above
Vero E6 [3] = assay: as above
HepG2 [4] = assay: as above
Caco-2 [5] = assay: as above
Calu-3 [6] = assay: relative viability EC50 (midpoint between 100% and the lowest measured viability); higher = less toxic
U2OS [7] = assay: as above
Vero E6 [8] = assay: as above
HepG2 [9] = assay: as above
Caco-2 [10] = assay: as above
Calu-3 [11] = assay: drug sensitivity score (DSS) for viability; higher = more toxic; extreme values may be limits of the assay
U2OS [12] = assay: as above
Vero E6 [13] = assay: as above
HepG2 [14] = assay: as above
Caco-2 [15] = assay: as above

Row | SMILES | cell viability (Calu-3 [1]; 1 nM) | cell viability (Calu-3 [1]; 10 nM) | cell viability (Calu-3 [1]; 100 nM) | cell viability (Calu-3 [1]; 1000 nM) | cell viability (Calu-3 [1]; 10000 nM) | cell viability (U2OS [2]; 1 nM) | cell viability (U2OS [2]; 10 nM) | cell viability (U2OS [2]; 100 nM) | cell viability (U2OS [2]; 1000 nM) | cell viability (U2OS [2]; 10000 nM) | cell viability (Vero E6 [3]; 1 nM) | cell viability (Vero E6 [3]; 10 nM) | cell viability (Vero E6 [3]; 100 nM) | cell viability (Vero E6 [3]; 1000 nM) | cell viability (Vero E6 [3]; 10000 nM) | cell viability (HepG2 [4]; 1 nM) | cell viability (HepG2 [4]; 10 nM) | cell viability (HepG2 [4]; 100 nM) | cell viability (HepG2 [4]; 1000 nM) | cell viability (HepG2 [4]; 10000 nM) | cell viability (Caco-2 [5]; 1 nM) | cell viability (Caco-2 [5]; 10 nM) | cell viability (Caco-2 [5]; 100 nM) | cell viability (Caco-2 [5]; 1000 nM) | cell viability (Caco-2 [5]; 10000 nM) | relative viability EC50 (Calu-3 [6]) | relative viability EC50 (U2OS [7]) | relative viability EC50 (Vero E6 [8]) | relative viability EC50 (HepG2 [9]) | relative viability EC50 (Caco-2 [10]) | drug sensitivity score (Calu-3 [11]) | drug sensitivity score (U2OS [12]) | drug sensitivity score (Vero E6 [13]) | drug sensitivity score (HepG2 [14]) | drug sensitivity score (Caco-2 [15])
1 | CCCC[C@]1(CC)CS(=O)(=O)c2cc(CNC(CC(=O)O)CC(=O)O)c(OC)cc2[C@@H](c2ccccc2)N1 | 96.3% | 101% | 98% | 89.5% | 100% | 96.7% | 101% | 96.8% | 104% | 104% | 95.7% | 94.1% | 96.5% | 91.1% | 104% | 105% | 112% | 108% | 97.7% | 112% | 90% | 97.8% | 99.7% | 96.5% | 105% | > 10 µM | > 10 µM | > 10 µM | > 10 µM | > 10 µM | 0 | 0 | 0 | 0 | 0
2 | CC(C)n1nc(-c2ccc3oc(N)nc3c2)c2c(N)ncnc21 [MLN0128] | 88.6% | 61.2% | 31.5% | 28.4% | 22.8% | 100% | 92.1% | 35% | 18.4% | 12% | 97.9% | 93.5% | 48.7% | 35.6% | 16.5% | 106% | 91.9% | 32.4% | 26.6% | 12.9% | 102% | 72% | 45.2% | 26.1% | 20.1% | 0.0095 µM | 0.049 µM | 0.0855 µM | 0.0449 µM | 0.0309 µM | 27.5 | 24.4 | 19.7 | 24.6 | 23.2
3 | O=C(NCCCN1CCOCC1)c1cnn2c(-c3ccccc3)cc(-c3ccccc3)nc12 [reversan] | 105% | 101% | 107% | 91.8% | 75.4% | 103% | 103% | 97.5% | 99.5% | 85.8% | 97.8% | 100% | 103% | 103% | 82.6% | 91.7% | 95.6% | 92.6% | 102% | 93.3% | 104% | 97% | 92.2% | 88.8% | 75.6% | > 10 µM | > 10 µM | > 10 µM | > 10 µM | > 10 µM | 2 | 0.2 | 0.3 | 0 | 1.8
4 | O=C(O)c1ccccc1NC(=O)N1CCC(c2ccccc2C(F)(F)F)CC1 [A-1120] | 102% | 96.5% | 100% | 94.1% | 106% | 104% | 104% | 102% | 100% | 98.7% | 101% | 100% | 93.1% | 95.4% | 93.5% | 88.2% | 96.1% | 107% | 103% | 108% | 100% | 93.2% | 98.4% | 96.8% | 84.2% | > 10 µM | > 10 µM | > 10 µM | > 10 µM | > 10 µM | 0 | 0 | 0 | 0 | 0.6
5 | Cc1ccc([N+](=O)[O-])cc1S(=O)(=O)N(C)C | 97.2% | 92.8% | 94.8% | 107% | 105% | 103% | 99.7% | 103% | 92.6% | 99.9% | 92.8% | 97.9% | 95.6% | 93.1% | 108% | 95.7% | 104% | 93.1% | 99.1% | 102% | 91.7% | 88.7% | 94.2% | 96.1% | 99.2% | > 10 µM | > 10 µM | > 10 µM | > 10 µM | > 10 µM | 0 | 0 | 0 | 0 | 0
6 | CN1C(CCl)Nc2cc(Cl)c(S(N)(=O)=O)cc2S1(=O)=O (stereo not given) [methyclothiazide] | 103% | 91.8% | 97.9% | 105% | 108% | 104% | 96.9% | 101% | 98.4% | 102% | 94.3% | 96.6% | 94.8% | 99.4% | 99.7% | 96.3% | 96.1% | 106% | 104% | 105% | 101% | 103% | 104% | 103% | 94.9% | > 10 µM | > 10 µM | > 10 µM | > 10 µM | > 10 µM | 0 | 0 | 0 | 0 | 0
7 | CC(C)COC(=O)c1ccc(N)cc1 [isobutamben] | 87.8% | 100% | 103% | 111% | 102% | 104% | 96.4% | 102% | 94.1% | 99.9% | 102% | 106% | 97.9% | 98.6% | 96.2% | 98.7% | 103% | 94.9% | 88% | 90.2% | 100% | 95.9% | 102% | 93.1% | 98.8% | > 10 µM | > 10 µM | > 10 µM | > 10 µM | > 10 µM | 0 | 0 | 0 | 0.7 | 0
8 | OC[C@H]1O[C@@H](n2cnc3c(NC4CCCC4)ncnc32)[C@H](O)[C@@H]1O [N6-cyclopentyladenosine] | 108% | 96.6% | 94% | 102% | 100% | 97.7% | 98.8% | 98.2% | 102% | 112% | 92.4% | 91.4% | 92.2% | 93.9% | 102% | 112% | 95.6% | 99.1% | 92.7% | 100% | 92.8% | 99.7% | 109% | 104% | 116% | > 10 µM | > 10 µM | > 10 µM | > 10 µM | > 10 µM | 0 | 0 | 0 | 0 | 0
9 | CC(=O)OC[C@H]1O[C@@](COC(C)=O)(O[C@H]2O[C@H](COC(C)=O)[C@@H](OC(C)=O)[C@H](OC(C)=O)[C@H]2OC(C)=O)[C@@H](OC(C)=O)[C@@H]1OC(C)=O [sucrose-octaacetate] | 102% | 96.3% | 99% | 103% | 108% | 95.1% | 89.6% | 97.7% | 102% | 102% | 98.5% | 100% | 94.1% | 94.6% | 110% | 93% | 100% | 102% | 103% | 109% | 102% | 99.6% | 97% | 93% | 98.4% | > 10 µM | > 10 µM | > 10 µM | > 10 µM | > 10 µM | 0 | 0 | 0 | 0 | 0
10 | CN(C)CCOC(C)(c1ccccc1)c1ccccn1 (stereo not given) [doxylamine] | 98.6% | 105% | 98.6% | 106% | 108% | 104% | 100% | 103% | 98.4% | 101% | 99.5% | 102% | 100% | 100% | 99.6% | 102% | 101% | 101% | 106% | 99.8% | 106% | 97.6% | 98.6% | 98.1% | 104% | > 10 µM | > 10 µM | > 10 µM | > 10 µM | > 10 µM | 0 | 0 | 0 | 0 | 0
11 | O=S(=O)(c1ccccc1F)N1CCOc2c(N3CCNCC3)cccc21 [R-1485] | 96.5% | 100% | 98.8% | 100% | 90.8% | 96.2% | 96.5% | 93.6% | 97.6% | 92.8% | 105% | 105% | 99.2% | 97.3% | 108% | 102% | 101% | 101% | 93.6% | 96.7% | 89.3% | 98.6% | 93% | 96.3% | 95.6% | > 10 µM | > 10 µM | > 10 µM | > 10 µM | > 10 µM | 0 | 0 | 0 | 0 | 0
12 | Cc1ccccc1/N=N/c1ccc(NC(=O)c2ccnn2C)c(C)c1 | 112% | 100% | 97.6% | 99.3% | 90.9% | 96.7% | 102% | 100% | 102% | 93.2% | 97.3% | 92.1% | 95.2% | 94.1% | 108% | 107% | 102% | 104% | 91% | 97.6% | 90.6% | 94% | 97.9% | 93.8% | 91.5% | > 10 µM | > 10 µM | > 10 µM | > 10 µM | > 10 µM | 0 | 0 | 0 | 0 | 0
13 | C[C@@H]1CC[C@H]2C(C)(C)[C@H]3C[C@@]12CC[C@@]3(C)O [cedrol] | 96.9% | 97.1% | 103% | 87.7% | 102% | 99.9% | 94.5% | 101% | 97.1% | 101% | 94.5% | 96.5% | 91.2% | 94.7% | 103% | 97.7% | 102% | 98% | 104% | 118% | 97.5% | 88.4% | 100% | 99.4% | 104% | > 10 µM | > 10 µM | > 10 µM | > 10 µM | > 10 µM | 0 | 0 | 0 | 0 | 0
14 | O=C(O)c1cccc(-c2noc(-c3ccccc3F)n2)c1 [ataluren] | 98.5% | 89.7% | 104% | 94.2% | 99.6% | 96.6% | 99.4% | 95.7% | 101% | 93.5% | 103% | 102% | 106% | 106% | 95.7% | 101% | 107% | 105% | 97.2% | 90.9% | 97% | 101% | 98.6% | 111% | 94.3% | > 10 µM | > 10 µM | > 10 µM | > 10 µM | > 10 µM | 0 | 0 | 0 | 0 | 0

From the supplement of paper PMC13380429
